Read-outs that look alike come from different tables or passages of the source.
Key:
[1] = biological target: SARS-CoV-2 nsp5 (nsp4-5-6 WT) (Severe acute respiratory syndrome coronavirus 2, UniProt P0DTD1); test: cell-based; details: for inhibition at 10 µM: HEK-293T
[2] = system: SARS-CoV-2 nsp5; details: read-out: reported in vitro IC50; ref Ma et al., 2021; cited from earlier work
[3] = biological target: purified SARS-CoV-2 nsp5 protein (Severe acute respiratory syndrome coronavirus 2, UniProt P0DTD1); test: biochemical
[4] = system: SARS-CoV-2; test: microbe, parasite or virus in culture; type: cell-based
[5] = read-out: Primary screen nsp5-WT RLU (%)
[6] = read-out: Secondary screen nsp5-WT RLU (%)

Compound | inhibition at 10 µM [1, 5] [%] | inhibition at 10 µM [1, 6] [%] | other results
CNCc1ccc(C)c(NC(=O)c2ccc(Nc3nc(-c4ccccc4)c4ccccc4n3)cc2)c1 [compound 16, BMS-833923 (XL139)] | 16.4 | 16.2 ± 2.1 | 
CCOC(=O)C1=C(C)NC(C)=C(C(=O)OCC)C1c1ccccc1/C=C/C(=O)OC(C)(C)C [compound 3, Lacidipine] | 10.2 | 8.9 ± 0.7 | 
Cc1nc(Nc2ncc(C(=O)Nc3c(C)cccc3Cl)s2)cc(N2CCN(CCO)CC2)n1 [compound 21, Dasatinib (BMS-354825)] | 11.6 | 10.7 ± 1.7 | 
UNC2881 [compound 1] |  |  | Primary screen nsp5-WT RLU (%) [1]: 29.5%; Secondary screen nsp5-WT RLU (%) [1]: 18.2 ± 0.5%
Cc1sc2c(c1C)C(c1ccc(Cl)cc1)=N[C@@H](CC(=O)Nc1ccc(O)cc1)c1nnc(C)n1-2 [compound 7, OTX015] | 31.8 | 31.5 ± 11 | 
COCCOc1ccc2c(c1)ncn2-c1ccc2cccc(N3CCC(N)CC3)c2n1 [compound 12, CP 673451] | 19.4 | 13.9 ± 0.9 | 
CC[C@@H]1C(=O)N(C)c2cnc(Nc3ccc(C(=O)N[C@H]4CC[C@H](N5CCN(CC6CC6)CC5)CC4)cc3OC)nc2N1C(C)C [compound 4, Volasertib (BI6727)] | 83.9 | 114 ± 8.9 | 
C1=C/COCc2cc(ccc2OCCN2CCCC2)Nc2nccc(n2)-c2cccc(c2)COC/1 [Compound #9, Pacritinib (SB1518)] | 28.2 | 15.3 ± 1.3 | 
CC(C)(C(=O)c1cccnc1)c1cccnc1 [compound 44, Metyrapone] |  | -1.4 ± 0.2 | 
C=CC(=O)Nc1cc(Nc2nccc(-c3cn(C)c4ccccc34)n2)c(OC)cc1N(C)CCN(C)C [compound 23, Osimertinib (AZD9291)] |  |  | Primary screen nsp5-WT RLU (%) [1]: 10.1%; Secondary screen nsp5-WT RLU (%) [1]: 8.3 ± 2.3%
COc1cc(NC(=O)Nc2cccc(CNC(=O)O[C@H]3CCOC3)c2)ccc1-c1cnco1 [compound 5, Merimepodib] | 46.1 | 39 | IC50 [3]: > 600 µM; inhibition of nsp5 protease activity in vitro [3]: does not efficiently inhibit; SI (selectivity index) ([4]; EC50 to CC50 ratio, A549-ACE2 cells): 1.5; EC50 ([4]; Severe acute respiratory syndrome coronavirus 2, A549-ACE2, read-out: EC50 inhibition of SARS-CoV-2 replication): 21 µM; IC50 [1]: < 50 µM
CC(C)(C)c1cnc(CSc2cnc(NC(=O)C3CCNCC3)s2)o1 [compound 17, SNS-032 (BMS-387032)] | 15.7 | 10.7 ± 1.1 | 
O=C(Nc1c[nH]nc1-c1nc2ccc(CN3CCOCC3)cc2[nH]1)NC1CC1 [compound 10, AT9283] | 24 | 14.7 ± 0.8 | 
O=C(NC(Cc1cc(=O)[nH]c2ccccc12)C(=O)O)c1ccc(Cl)cc1 (stereo not drawn) [compound 43, Rebamipide] |  | -1.5 ± 0.5 | 
C=CC(=O)Nc1cccc(Nc2nc(Nc3ccc(N4CCN(C(C)=O)CC4)cc3OC)ncc2C(F)(F)F)c1 [compound 20, Rociletinib (CO-1686. AVL-301)] | 13.3 | 9.7 ± 1.9 | 
Cc1cnc(Nc2ccc(OCCN3CCCC3)cc2)nc1Nc1cccc(S(=O)(=O)NC(C)(C)C)c1 [compound 6, Fedratinib (SAR302503)] | 32.7 | 57.6 ± 8.6 | 
Cc1cnc(Nc2ccc(N3CCN(C)CC3)cc2)nc1Nc1cccc(S(=O)(=O)NC(C)(C)C)c1 [compound 8, TG101209] |  |  | Primary screen nsp5-WT RLU (%) [1]: 30.0%; Secondary screen nsp5-WT RLU (%) [1]: 34.9 ± 4.0%

Reference: publication PMC8906008 (Antiviral Research, 2022)
